Measured values published in PubChem BioAssay (NCI).
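Following 48 hours of exposure in 96-well plates, responses at five concentrations were used to interpolate endpoints linearly. TGI denotes the concentration required for complete inhibition of growth.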

Experiments:
Test in all cases: NCI anticancer screen, dose series, 48 h
[1] = test system: DLD-1 colon
[2] = test system: OVCAR-8 ovarian
[3] = test system: MOLT-4 leukemia
[4] = test system: SNB-19 CNS
[5] = test system: EKVX NSCLC
[6] = test system: NCI-H522 lung
[7] = test system: RXF 393 renal
[8] = test system: RPMI-8226 leukemia
[9] = test system: SN12C renal
[10] = test system: NCI-H460 lung
[11] = test system: K-562 leukemia
[12] = test system: TK-10 renal
[13] = test system: MALME-3M melanoma
[14] = test system: OVCAR-5 ovarian
[15] = test system: RXF-631 renal
[16] = test system: XF 498 CNS
[17] = test system: SR leukemia
[18] = test system: KM20L2 colon
[19] = test system: SF-295 CNS
[20] = test system: HL-60(TB) leukemia
[21] = test system: IGROV1 ovarian
[22] = test system: HT29 colon
[23] = test system: DMS 114 small cell lung
[24] = test system: CAKI-1 renal
[25] = test system: NCI-H23 lung
[26] = test system: SNB-75 CNS
[27] = test system: UO-31 renal
[28] = test system: LXFL 529 NSCLC
[29] = test system: ACHN renal
[30] = test system: U251 CNS
[31] = test system: HCT-15 colon
[32] = test system: UACC-62 melanoma
[33] = test system: OVCAR-4 ovarian
[34] = test system: M14 melanoma
[35] = test system: SK-MEL-5 melanoma
[36] = test system: 786-0 renal
[37] = test system: SK-MEL-2 melanoma
[38] = test system: A498 renal
[39] = test system: HOP-92 NSCLC
[40] = test system: SF-539 CNS
[41] = test system: CCRF-CEM leukemia
[42] = test system: OVCAR-3 ovarian
[43] = test system: LOX IMVI melanoma
[44] = test system: UACC-257 melanoma
[45] = test system: M19-MEL melanoma
[46] = test system: HCC-2998 colon
[47] = test system: SW-620 colon
[48] = test system: DMS 273 small cell lung
[49] = test system: SF-268 CNS
[50] = test system: A549 NSCLC
[51] = test system: SNB-78 CNS
[52] = test system: HCT-116 colon
[53] = test system: SK-MEL-28 melanoma
[54] = test system: NCI-H226 lung
[55] = test system: HOP-62 NSCLC
[56] = test system: KM12 colon
[57] = test system: SK-OV-3 ovarian
[58] = test system: COLO 205 colon
[59] = test system: HOP-18 NSCLC

Cc1ccccc1NC(=O)CC1C(=O)Nc2ccccc2S1=O (configuration not stated)
TGI [1]: > 100 µM
TGI [2]: > 100 µM
TGI [3]: > 100 µM
TGI [4]: > 100 µM
TGI [5]: > 100 µM
TGI [6]: > 100 µM
TGI [7]: 51.8 µM
TGI [8]: > 100 µM
TGI [9]: > 100 µM
TGI [10]: > 100 µM
TGI [11]: > 100 µM
TGI [12]: > 100 µM
TGI [13]: > 100 µM
TGI [14]: > 100 µM
TGI [15]: > 100 µM
TGI [16]: > 100 µM
TGI [17]: > 100 µM
TGI [18]: > 100 µM
TGI [19]: > 100 µM
TGI [20]: > 100 µM
TGI [21]: > 100 µM
TGI [22]: > 100 µM
TGI [23]: > 100 µM
TGI [24]: > 100 µM
TGI [25]: > 100 µM
TGI [26]: 65.9 µM
TGI [27]: > 100 µM
TGI [28]: > 100 µM
TGI [29]: > 100 µM
TGI [30]: > 100 µM
TGI [31]: > 100 µM
TGI [32]: > 100 µM
TGI [33]: > 100 µM
TGI [34]: > 100 µM
TGI [35]: > 100 µM
TGI [36]: > 100 µM
TGI [37]: > 100 µM
TGI [38]: > 100 µM
TGI [39]: > 100 µM
TGI [40]: 94.3 µM
TGI [41]: > 100 µM
TGI [42]: > 100 µM
TGI [43]: > 100 µM
TGI [44]: > 100 µM
TGI [45]: > 100 µM
TGI [46]: > 100 µM
TGI [47]: > 100 µM
TGI [48]: > 100 µM
TGI [49]: > 100 µM
TGI [50]: > 100 µM
TGI [51]: > 100 µM
TGI [52]: > 100 µM
TGI [53]: > 100 µM
TGI [54]: > 100 µM

Cc1noc2cccc(O)c12
TGI [1]: > 100 µM
TGI [2]: > 100 µM
TGI [3]: > 100 µM
TGI [4]: > 100 µM
TGI [5]: > 100 µM
TGI [6]: > 100 µM
TGI [55]: > 100 µM
TGI [7]: > 100 µM
TGI [9]: > 100 µM
TGI [56]: > 100 µM
TGI [10]: > 100 µM
TGI [11]: > 100 µM
TGI [12]: > 100 µM
TGI [13]: > 100 µM
TGI [14]: > 100 µM
TGI [16]: > 100 µM
TGI [18]: > 100 µM
TGI [19]: > 100 µM
TGI [20]: > 100 µM
TGI [21]: > 100 µM
TGI [22]: > 100 µM
TGI [23]: > 100 µM
TGI [24]: > 100 µM
TGI [25]: > 100 µM
TGI [26]: > 100 µM
TGI [27]: > 100 µM
TGI [28]: > 100 µM
TGI [29]: > 100 µM
TGI [30]: > 100 µM
TGI [31]: > 100 µM
TGI [32]: > 100 µM
TGI [33]: > 100 µM
TGI [34]: > 100 µM
TGI [35]: > 100 µM
TGI [36]: > 100 µM
TGI [37]: > 100 µM
TGI [57]: > 100 µM
TGI [38]: > 100 µM
TGI [58]: > 100 µM
TGI [39]: > 100 µM
TGI [59]: > 100 µM
TGI [40]: > 100 µM
TGI [41]: > 100 µM
TGI [42]: > 100 µM
TGI [43]: > 100 µM
TGI [44]: > 100 µM
TGI [45]: > 100 µM
TGI [46]: > 100 µM
TGI [47]: > 100 µM
TGI [48]: > 100 µM
TGI [49]: > 100 µM
TGI [50]: > 100 µM
TGI [51]: > 100 µM
TGI [52]: > 100 µM
TGI [53]: > 100 µM
TGI [54]: > 100 µM

CC12Nc3ccccc3C1=C(c1ccccc1)CC1C(=O)OC(=O)C12 (configuration not stated)
TGI [1]: > 100 µM
TGI [2]: > 100 µM
TGI [3]: > 100 µM
TGI [4]: > 100 µM
TGI [5]: > 100 µM
TGI [6]: > 100 µM
TGI [55]: > 100 µM
TGI [7]: > 100 µM
TGI [8]: > 100 µM
TGI [9]: > 100 µM
TGI [56]: > 100 µM
TGI [10]: > 100 µM
TGI [11]: > 100 µM
TGI [12]: > 100 µM
TGI [13]: > 100 µM
TGI [14]: > 100 µM
TGI [15]: > 100 µM
TGI [16]: > 100 µM
TGI [18]: > 100 µM
TGI [19]: > 100 µM
TGI [20]: > 100 µM
TGI [21]: > 100 µM
TGI [22]: > 100 µM
TGI [23]: > 100 µM
TGI [25]: > 100 µM
TGI [26]: 73.7 µM
TGI [27]: > 100 µM
TGI [28]: > 100 µM
TGI [29]: > 100 µM
TGI [30]: > 100 µM
TGI [31]: > 100 µM
TGI [32]: > 100 µM
TGI [33]: > 100 µM
TGI [34]: > 100 µM
TGI [35]: > 100 µM
TGI [36]: > 100 µM
TGI [37]: > 100 µM
TGI [58]: > 100 µM
TGI [39]: > 100 µM
TGI [40]: > 100 µM
TGI [41]: > 100 µM
TGI [42]: > 100 µM
TGI [43]: > 100 µM
TGI [44]: > 100 µM
TGI [45]: > 100 µM
TGI [46]: > 100 µM
TGI [47]: > 100 µM
TGI [48]: > 100 µM
TGI [49]: > 100 µM
TGI [50]: > 100 µM
TGI [51]: > 100 µM
TGI [52]: > 100 µM
TGI [53]: > 100 µM

CCCC(=O)OCC1OC2OC(C)(C)OC2C2OC(C)(C)OC12 (configuration not stated)
TGI [2]: > 100 µM
TGI [3]: > 100 µM
TGI [4]: > 100 µM
TGI [5]: > 100 µM
TGI [6]: > 100 µM
TGI [55]: > 100 µM
TGI [7]: > 100 µM
TGI [56]: > 100 µM
TGI [10]: > 100 µM
TGI [12]: 61.1 µM
TGI [14]: > 100 µM
TGI [15]: > 100 µM
TGI [17]: > 100 µM
TGI [19]: > 100 µM
TGI [20]: > 100 µM
TGI [21]: > 100 µM
TGI [22]: > 100 µM
TGI [25]: > 100 µM
TGI [27]: > 100 µM
TGI [29]: > 100 µM
TGI [30]: > 100 µM
TGI [34]: > 100 µM
TGI [57]: > 100 µM
TGI [38]: > 100 µM
TGI [39]: > 100 µM
TGI [41]: > 100 µM
TGI [44]: > 100 µM
TGI [45]: > 100 µM
TGI [48]: > 100 µM
TGI [50]: > 100 µM
TGI [51]: > 100 µM
TGI [52]: > 100 µM
TGI [53]: > 100 µM
TGI [54]: > 100 µM
